The values below come from patent publication US20090311217A1, “3-SUBSTITUTED-1H-INDOLE COMPOUNDS, THEIR USE AS MTOR KINASE AND PI3 KINASE INHIBITORS, AND THEIR SYNTHESES” (priority 2008, published 2009).

Type in all cases: biochemical
One test addresses T1, human TOR (Homo sapiens, UniProt P42345).
T1 construct: FLAG
Put plainly: mTOR enzyme assay (DELFIA, His6-S6K substrate). Particulars: read-out: mTOR Kinase Avg. IC50.

For another test, the target named is PI3K-gamma (Homo sapiens, UniProt P48736). Put plainly: PI3K-gamma fluorescence polarization assay. Particulars: PI3Kγ Avg. IC50. An outline of the steps:
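Reactions used 5 ng enzyme with 2.5 μM diC8-PI(4,5)P2 and 25 μM ATP in 5 mM HEPES pH 7, 2.5 mM MgCl2, run 1 h at 25° C. After an EDTA quench (10 mM), 100 nM GST-GRP1 PH domain and 5 nM BODIPY-TMR-IP4 were added and fluorescence polarization was read.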
Background: In fluorescence polarisation assays a small probe gives low polarisation when free and higher when bound to something large.

The next test concerns the target PI3K-alpha (Homo sapiens, UniProt P42336). Put plainly: PI3K-alpha fluorescence polarization assay. Particulars: read-out: PI3Kα Avg. IC50.

Structures are written as SMILES.

Chain of PI3K-gamma (P48736 whole entry, species assumed, the tested form may be a part): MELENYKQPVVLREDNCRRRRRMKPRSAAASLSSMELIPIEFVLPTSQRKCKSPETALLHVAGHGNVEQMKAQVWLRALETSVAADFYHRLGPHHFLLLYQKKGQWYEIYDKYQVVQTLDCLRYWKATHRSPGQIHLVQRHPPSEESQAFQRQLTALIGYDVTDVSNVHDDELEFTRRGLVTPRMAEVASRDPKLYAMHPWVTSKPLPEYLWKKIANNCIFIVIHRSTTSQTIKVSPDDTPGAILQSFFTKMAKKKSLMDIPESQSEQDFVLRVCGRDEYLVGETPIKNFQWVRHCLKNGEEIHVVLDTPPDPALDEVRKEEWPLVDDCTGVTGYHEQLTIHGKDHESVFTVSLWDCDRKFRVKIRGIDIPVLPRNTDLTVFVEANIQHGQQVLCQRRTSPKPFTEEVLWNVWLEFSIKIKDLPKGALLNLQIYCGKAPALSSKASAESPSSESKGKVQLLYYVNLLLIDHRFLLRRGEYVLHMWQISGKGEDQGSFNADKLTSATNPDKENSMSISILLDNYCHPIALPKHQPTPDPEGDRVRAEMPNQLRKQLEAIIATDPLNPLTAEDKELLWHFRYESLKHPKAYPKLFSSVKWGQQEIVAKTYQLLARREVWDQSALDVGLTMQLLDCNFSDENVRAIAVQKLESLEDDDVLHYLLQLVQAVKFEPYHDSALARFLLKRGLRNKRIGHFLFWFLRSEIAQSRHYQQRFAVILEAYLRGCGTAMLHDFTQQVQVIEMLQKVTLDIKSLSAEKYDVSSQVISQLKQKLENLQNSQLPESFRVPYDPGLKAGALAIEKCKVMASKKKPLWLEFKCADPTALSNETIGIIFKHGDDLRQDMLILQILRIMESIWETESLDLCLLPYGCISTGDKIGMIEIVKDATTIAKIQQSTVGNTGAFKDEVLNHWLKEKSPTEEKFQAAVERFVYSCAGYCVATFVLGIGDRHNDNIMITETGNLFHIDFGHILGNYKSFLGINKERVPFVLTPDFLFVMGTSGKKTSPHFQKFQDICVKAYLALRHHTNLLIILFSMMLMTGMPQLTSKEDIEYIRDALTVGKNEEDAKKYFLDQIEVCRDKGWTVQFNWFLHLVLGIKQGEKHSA
Chain of PI3K-alpha (P42336 whole entry, species assumed): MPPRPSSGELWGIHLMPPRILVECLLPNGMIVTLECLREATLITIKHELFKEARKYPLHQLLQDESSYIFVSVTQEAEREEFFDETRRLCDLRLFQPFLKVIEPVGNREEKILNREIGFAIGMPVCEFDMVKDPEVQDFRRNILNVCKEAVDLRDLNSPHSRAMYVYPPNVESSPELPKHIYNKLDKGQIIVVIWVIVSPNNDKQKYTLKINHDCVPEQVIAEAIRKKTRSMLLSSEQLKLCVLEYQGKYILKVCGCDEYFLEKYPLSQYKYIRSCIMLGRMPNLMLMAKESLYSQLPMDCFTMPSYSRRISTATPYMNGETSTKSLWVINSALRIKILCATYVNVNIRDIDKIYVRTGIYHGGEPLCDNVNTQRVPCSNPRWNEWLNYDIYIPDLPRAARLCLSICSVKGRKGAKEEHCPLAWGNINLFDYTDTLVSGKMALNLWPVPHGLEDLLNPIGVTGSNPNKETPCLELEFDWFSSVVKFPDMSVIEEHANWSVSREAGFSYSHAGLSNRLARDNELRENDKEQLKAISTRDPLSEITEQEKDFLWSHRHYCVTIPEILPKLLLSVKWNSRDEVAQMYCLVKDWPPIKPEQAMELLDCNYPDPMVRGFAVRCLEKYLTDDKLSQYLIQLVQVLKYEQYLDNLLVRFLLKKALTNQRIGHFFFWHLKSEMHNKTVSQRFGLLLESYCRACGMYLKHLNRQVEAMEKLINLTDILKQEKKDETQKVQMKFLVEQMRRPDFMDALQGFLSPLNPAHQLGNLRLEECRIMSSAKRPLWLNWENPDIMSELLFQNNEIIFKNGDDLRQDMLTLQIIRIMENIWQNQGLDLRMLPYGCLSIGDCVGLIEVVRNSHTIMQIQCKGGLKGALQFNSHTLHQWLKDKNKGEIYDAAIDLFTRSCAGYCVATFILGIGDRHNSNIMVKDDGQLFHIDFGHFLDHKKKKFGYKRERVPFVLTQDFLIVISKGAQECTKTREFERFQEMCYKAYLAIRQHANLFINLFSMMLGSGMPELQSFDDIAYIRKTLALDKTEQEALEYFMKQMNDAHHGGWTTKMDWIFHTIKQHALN
Chain of PI3K-alpha (P27986 whole entry partner, species assumed): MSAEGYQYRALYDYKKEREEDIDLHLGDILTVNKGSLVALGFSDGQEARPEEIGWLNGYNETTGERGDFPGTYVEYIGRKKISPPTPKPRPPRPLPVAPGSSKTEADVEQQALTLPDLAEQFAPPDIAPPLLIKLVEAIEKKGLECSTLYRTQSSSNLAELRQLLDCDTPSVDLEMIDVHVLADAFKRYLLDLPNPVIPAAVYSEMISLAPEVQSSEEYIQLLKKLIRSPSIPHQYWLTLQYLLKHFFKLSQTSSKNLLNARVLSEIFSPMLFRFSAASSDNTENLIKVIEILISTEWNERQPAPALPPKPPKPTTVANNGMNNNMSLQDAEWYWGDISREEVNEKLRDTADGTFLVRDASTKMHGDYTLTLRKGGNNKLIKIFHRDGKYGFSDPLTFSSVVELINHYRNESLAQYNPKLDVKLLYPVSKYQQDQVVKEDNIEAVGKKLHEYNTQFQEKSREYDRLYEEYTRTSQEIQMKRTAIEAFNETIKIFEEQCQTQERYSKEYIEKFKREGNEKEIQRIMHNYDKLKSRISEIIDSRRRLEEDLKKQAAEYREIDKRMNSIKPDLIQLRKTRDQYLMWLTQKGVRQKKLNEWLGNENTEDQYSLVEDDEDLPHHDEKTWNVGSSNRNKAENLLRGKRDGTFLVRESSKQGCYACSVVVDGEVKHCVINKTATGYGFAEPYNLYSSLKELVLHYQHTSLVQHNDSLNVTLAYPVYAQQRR

Turning to `CCn1c(C)c(/C=C2\Oc3ccc(NC(=O)Nc4ccc(N(C)C(=O)CCN(C)C)cc4)cc3C2=O)c2cc(OC)ccc21` [Compound 694, N-{4-[({(2Z)-2-[(1-ethyl-5-methoxy-2-methyl-1H-indol-3-yl)methylidene]-3-oxo-2,3-dihydro-1-benzofuran-5-yl}carbamoyl)amino]phenyl}-N,N3,N3-trimethyl-b-alaninamide], the IC50 on human TOR was determined as 155 nM; against PI3K-gamma, 95 nM; on PI3K-alpha it was 4 nM.

With `CNCCn1c(-c2c(C)nn(C)c2C)c(/C=C2\Oc3ccc(NC(=O)NC)cc3C2=O)c2cc(OC)ccc21` [Compound 672, 1-[(2Z)-2-({5-methoxy-1-[2-(methylamino)ethyl]-2-(1,3,5-trimethyl-1H-pyrazol-4-yl)-1H-indol-3-yl}methylidene)-3-oxo-2,3-dihydro-1-benzofuran-5-yl]-3-methylurea], the IC50 on human TOR stood at 27 nM; at PI3K-gamma, 180 nM; at PI3K-alpha, 10.5 nM.

Turning to `CCn1c(C)c(/C=C2\Oc3ccc(NC(=O)Nc4ccc(OCCCN(C)C)cc4)cc3C2=O)c2cc(OC)ccc21` [Compound 654, 1-{4-[3-(dimethylamino)propoxy]phenyl}-3-{(2Z)-2-[(1-ethyl-5-methoxy-2-methyl-1H-indol-3-yl)methylene]-3-oxo-2,3-dihydro-1-benzofuran-5-yl}urea], the results for the IC50 on human TOR, at PI3K-gamma and on PI3K-alpha were 88 nM, 7.5 nM and 1.5 nM, respectively.

As for `Cn1cc(/C=C2\Oc3cc(O)cc(O)c3C2=O)c2c(-c3ccc(C#N)cc3)cccc21` [Example 368, 4-{3-[(Z)-(4,6-Dihydroxy-3-oxo-1-benzofuran-2(3H)-ylidene)methyl]-1-methyl-1H-indol-4-yl}benzonitrile], the IC50 at human TOR worked out at 44.5 nM; on PI3K-gamma, 4570 nM; on PI3K-alpha it was 1000 nM.

Regarding `O=C1C(=Cc2c[nH]c3c(O)cccc23)Oc2cc(O)cc(O)c21` [Example 246, 4,6-dihydroxy-2-[(7-hydroxy-1H-indol-3-yl)methylene]-1-benzofuran-3(2H)-one], the figures for the IC50 at human TOR, at PI3K-gamma and at PI3K-alpha were 17000 nM, above 10000 nM and 1030 nM, respectively.

With `COc1ccc2[nH]c(-c3c(C)nn(C)c3C)c(/C=C3\Oc4ccc(NC(=O)Nc5ccc(C(=O)N6CCC(N(C)C)CC6)cc5)cc4C3=O)c2c1` [Compound 702, 1-(4-{[4-(dimethylamino)piperidin-1-yl]carbonyl}phenyl)-3-[(2Z)-2-{[5-methoxy-2-(1,3,5-trimethyl-1H-pyrazol-4-yl)-1H-indol-3-yl]methylidene}-3-oxo-2,3-dihydro-1-benzofuran-5-yl]urea], the 50% inhibitory concentration (IC50) was 1 nM on human TOR, 3 nM on PI3K-gamma and 0.3 nM at PI3K-alpha.

As for `CNC(=O)Nc1ccc2c(c1)C(=O)/C(=C/c1c(-c3c(OC)cccc3OC)[nH]c3ccc(OC)cc13)O2` [Compound 637, 1-[(2Z)-2-{[2-(2,6-dimethoxyphenyl)-5-methoxy-1H-indol-3-yl]methylene}-3-oxo-2,3-dihydro-1-benzofuran-5-yl]-3-methylurea], the results for the 50% inhibitory concentration (IC50) on human TOR, against PI3K-gamma and on PI3K-alpha were 35 nM, 18.5 nM and 2.2 nM, respectively.

Take `COc1ccc2c(c1)c(/C=C1\Oc3cc(O)cc(Cl)c3C1=O)c(C)n2CCN1CCN(C)CC1` [Example 467, (2Z)-4-Chloro-6-hydroxy-2-({5-methoxy-2-methyl-1-[2-(4-methylpiperazin-1-yl)ethyl]-1H-indol-3-yl}methylene)-1-benzofuran-3(2H)-one]: the concentration for half-maximal inhibition (IC50) on human TOR is 425 nM; against PI3K-gamma it was 1790 nM; on PI3K-alpha, 50.5 nM.

For the molecule `CNC(=O)Nc1ccc2c(c1)C(=O)/C(=C/c1c(C#N)n(CCN3CCN(C)CC3)c3ccc(OC)cc13)O2` [Compound 628, 1-[(2Z)-2-({2-cyano-5-methoxy-1-[2-(4-methylpiperazin-1-yl)ethyl]-1H-indol-3-yl}methylidene)-3-oxo-2,3-dihydro-1-benzofuran-5-yl]-3-methylurea], the IC50 stood at 150 nM at human TOR, 2730 nM on PI3K-gamma and 11 nM at PI3K-alpha.

For `CNC(=S)Nc1ccc2c(c1)C(=O)/C(=C/c1c(C)n(CCN3CCN(C)CC3)c3ccc(OC)cc13)O2` [Compound 647, 1-[(2Z)-2-({5-methoxy-2-methyl-1-[2-(4-methylpiperazin-1-yl)ethyl]-1H-indol-3-yl}methylene)-3-oxo-2,3-dihydro-1-benzofuran-5-yl]-3-methylthiourea], the IC50 on human TOR was determined as 1260 nM; against PI3K-gamma, 4850 nM; at PI3K-alpha it was 10 nM.

In the case of `O=C1C(=Cc2c(-c3ccc(O)cc3)[nH]c3ccccc23)Oc2cc(O)cc(O)c21` [Example 206, 4,6-dihydroxy-2-{[2-(4-hydroxyphenyl)-1H-indol-3-yl]methylene}-1-benzofuran-3(2H)-one], the IC50 on human TOR is 65 nM; against PI3K-gamma, 1050 nM; at PI3K-alpha, 573 nM.

For `CN1CCN(c2cccc3c2c(/C=C2\Oc4cc(O)cc(O)c4C2=O)cn3C)CC1` [Example 439, (2Z)-4,6-dihydroxy-2-{[1-methyl-4-(4-methylpiperazin-1-yl)-1H-indol-3-yl]methylene}-1-benzofuran-3(2H)-one], the figures for the IC50 at human TOR, on PI3K-gamma and on PI3K-alpha were 33.8 nM, above 10000 nM and 4280 nM, respectively.

Regarding `Cn1cc(/C=C2\Oc3cc(O)cc(O)c3C2=O)c2c(-c3ccc(O)cc3)cccc21` [Example 379, (2Z)-4,6-Dihydroxy-2-{[4-(4-hydroxyphenyl)-1-methyl-1H-indol-3-yl]methylene}-1-benzofuran-3(2H)-one], the 50% inhibitory concentration (IC50) on human TOR was 29 nM; against PI3K-gamma it was 1090 nM; at PI3K-alpha, 562 nM.

Turning to `COc1ccc2c(c1)c(/C=C1\Oc3cc(O)ccc3C1=O)c(C(=O)N1CCOCC1)n2CCN1CCN(C)CC1` [Example 412, (2Z)-6-Hydroxy-2-({5-methoxy-1-[2-(4-methylpiperazin-1-yl)ethyl]-2-(morpholin-4-ylcarbonyl)-1H-indol-3-yl}methylene)-1-benzofuran-3(2H)-one], the concentration for half-maximal inhibition (IC50) was determined as 2800 nM at human TOR, 888 nM against PI3K-gamma and 10.5 nM on PI3K-alpha.

Consider `O=C1C(=Cc2c(-c3ccccc3)n(CCC3CCNCC3)c3ccccc23)Oc2cc(O)cc(O)c21` [Example 158, 4,6-dihydroxy-2-{[2-phenyl-1-(2-piperidin-4-ylethyl)-1H-indol-3-yl]methylene}-1-benzofuran-3(2H)-one], for which the 50% inhibitory concentration (IC50) at human TOR amounted to 4600 nM; against PI3K-gamma it was 4880 nM; at PI3K-alpha it was 2280 nM.

On to `CNC(=O)Nc1ccc2c(c1)C(=O)/C(=C/c1c(-c3c(C)nn(C)c3C)n(CCNCCN(C)C)c3ccc(OC)cc13)O2` [Compound 664, 1-[(2Z)-2-{[1-(2-{[2-(dimethylamino)ethyl]amino}ethyl)-5-methoxy-2-(1,3,5-trimethyl-1H-pyrazol-4-yl)-1H-indol-3-yl]methylidene}-3-oxo-2,3-dihydro-1-benzofuran-5-yl]-3-methylurea], for which the results for the IC50 at human TOR, at PI3K-gamma and at PI3K-alpha were 18 nM, 63 nM and 2.05 nM, respectively.

`Cn1cc(/C=C2\Oc3cc(O)cc(O)c3C2=O)c2c(-c3ccoc3)cccc21` [Example 378, (2Z)-2-{[4-(3-Furyl)-1-methyl-1H-indol-3-yl]methylene}-4,6-dihydroxy-1-benzofuran-3(2H)-one]: the concentration for half-maximal inhibition (IC50) on human TOR is 107 nM; at PI3K-gamma, 3400 nM; at PI3K-alpha it was 971 nM.

For `Cn1c(-c2ccc(O)cc2)c(C=C2Oc3cc(O)cc(O)c3C2=O)c2ccccc21` [Example 193, 4,6-dihydroxy-2-{[2-(4-hydroxyphenyl)-1-methyl-1H-indol-3-yl]methylene}-1-benzofuran-3(2H)-one], the half-maximal inhibitory concentration (IC50) worked out at 85 nM at human TOR, 7660 nM against PI3K-gamma and 1120 nM on PI3K-alpha.

In the case of `O=C1C(=Cc2c(-c3cccnc3)[nH]c3ccccc23)Oc2cc(O)cc(O)c21` [Example 202, 4,6-dihydroxy-2-[(2-pyridin-3-yl-1H-indol-3-yl)methylene]-1-benzofuran-3(2H)-one], the IC50 at human TOR came to 95 nM; at PI3K-gamma, 7000 nM; at PI3K-alpha, 1050 nM.

For `CCn1c(C)c(/C=C2\Oc3ccc(NC(=O)Nc4ccc(OCCCCN(C)C)cc4)cc3C2=O)c2cc(OC)ccc21` [Compound 668, 1-{4-[4-(dimethylamino)butoxy]phenyl}-3-{(2Z)-2-[(1-ethyl-5-methoxy-2-methyl-1H-indol-3-yl)methylidene]-3-oxo-2,3-dihydro-1-benzofuran-5-yl}urea], the figures for the half-inhibitory concentration (IC50) on human TOR, against PI3K-gamma and at PI3K-alpha were 295 nM, 12.3 nM and 2.87 nM, respectively.

With `CNC(=O)Nc1ccc2c(c1)C(=O)/C(=C/c1c(-c3c(C)nn(C)c3C)n(CCNCCO)c3ccc(OC)cc13)O2` [Compound 648, 1-[(2Z)-2-{[1-{2-[(2-hydroxyethyl)amino]ethyl}-5-methoxy-2-(1,3,5-trimethyl-1H-pyrazol-4-yl)-1H-indol-3-yl]methylene}-3-oxo-2,3-dihydro-1-benzofuran-5-yl]-3-methylurea], the half-maximal inhibitory concentration (IC50) at human TOR was found to be 9 nM; against PI3K-gamma it was 37 nM; on PI3K-alpha it was 2.95 nM.

Take `Cn1cc(/C=C2\Oc3cc(O)cc(O)c3C2=O)c2c(-c3ccc(N)nc3)cccc21` [Example 380, (2Z)-2-{[4-(6-Aminopyridin-3-yl)-1-methyl-1H-indol-3-yl]methylene}-4,6-dihydroxy-1-benzofuran-3(2H)-one]: the IC50 worked out at 89 nM on human TOR, 3260 nM at PI3K-gamma and 432 nM at PI3K-alpha.

On to `COc1ccc2c(c1)c(/C=C1\Oc3cc(O)c(F)cc3C1=O)c(C)n2CCCN(C)C` [Example 352, (2Z)-2-({1-[3-(Dimethylamino)propyl]-5-methoxy-2-methyl-1H-indol-3-yl}methylene)-5-fluoro-6-hydroxy-1-benzofuran-3(2H)-one], for which the IC50 on human TOR was above 800 nM; on PI3K-gamma it was 3930 nM; on PI3K-alpha, 116 nM.

The term IC50 denotes the point on the concentration scale where inhibition reaches its midpoint.
